{"source": "patent US9597322B2", "about": "“Otamixaban for use in the treatment of non-ST elevation acute coronary syndrome in patients planned to undergo coronary artery bypass grafting” (SANOFI, priority 2012, dated 2017)", "origin": "cited, not measured here", "key": {"[1]": {"biological_target": "factor Xa assembled in the prothrombinase complex (Factor Xa, Factor Va, calcium and phospholipid) (Homo sapiens, UniProt P00742)", "sequence (P00742 235-488 limits assumed)": "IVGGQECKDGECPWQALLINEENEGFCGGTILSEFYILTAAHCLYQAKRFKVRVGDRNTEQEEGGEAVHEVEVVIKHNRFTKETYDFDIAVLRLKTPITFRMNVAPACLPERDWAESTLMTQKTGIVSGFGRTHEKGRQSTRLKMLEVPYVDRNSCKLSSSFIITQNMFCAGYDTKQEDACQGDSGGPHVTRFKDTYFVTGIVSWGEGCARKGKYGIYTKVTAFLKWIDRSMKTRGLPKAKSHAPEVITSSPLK", "sequence (P00742 41-179 partner limits assumed)": "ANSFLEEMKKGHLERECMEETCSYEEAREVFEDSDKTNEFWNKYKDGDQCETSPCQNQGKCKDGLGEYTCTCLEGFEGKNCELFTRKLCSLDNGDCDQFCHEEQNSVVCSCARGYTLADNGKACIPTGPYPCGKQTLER", "sequence (P12259 29-737 partner limits assumed)": "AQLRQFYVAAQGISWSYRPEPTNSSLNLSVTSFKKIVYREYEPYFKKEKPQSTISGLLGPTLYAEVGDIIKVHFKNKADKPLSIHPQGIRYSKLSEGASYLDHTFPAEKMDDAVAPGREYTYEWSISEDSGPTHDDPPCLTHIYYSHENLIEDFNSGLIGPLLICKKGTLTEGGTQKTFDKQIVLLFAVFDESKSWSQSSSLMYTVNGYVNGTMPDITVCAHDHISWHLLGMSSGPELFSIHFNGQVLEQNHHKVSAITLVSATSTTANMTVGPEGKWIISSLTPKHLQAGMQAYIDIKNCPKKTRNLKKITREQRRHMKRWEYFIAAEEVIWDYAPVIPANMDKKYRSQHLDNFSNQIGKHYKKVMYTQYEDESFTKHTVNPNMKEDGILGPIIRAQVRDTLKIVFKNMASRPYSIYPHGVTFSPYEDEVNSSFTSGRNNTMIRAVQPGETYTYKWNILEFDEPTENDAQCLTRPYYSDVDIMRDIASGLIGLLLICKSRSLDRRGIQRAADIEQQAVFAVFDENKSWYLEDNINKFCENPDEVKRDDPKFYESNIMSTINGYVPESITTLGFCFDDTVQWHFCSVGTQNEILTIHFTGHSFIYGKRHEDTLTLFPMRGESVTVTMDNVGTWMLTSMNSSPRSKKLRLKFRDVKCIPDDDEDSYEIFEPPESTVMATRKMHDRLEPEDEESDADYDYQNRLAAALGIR", "sequence (P12259 1574-2224 partner limits assumed)": "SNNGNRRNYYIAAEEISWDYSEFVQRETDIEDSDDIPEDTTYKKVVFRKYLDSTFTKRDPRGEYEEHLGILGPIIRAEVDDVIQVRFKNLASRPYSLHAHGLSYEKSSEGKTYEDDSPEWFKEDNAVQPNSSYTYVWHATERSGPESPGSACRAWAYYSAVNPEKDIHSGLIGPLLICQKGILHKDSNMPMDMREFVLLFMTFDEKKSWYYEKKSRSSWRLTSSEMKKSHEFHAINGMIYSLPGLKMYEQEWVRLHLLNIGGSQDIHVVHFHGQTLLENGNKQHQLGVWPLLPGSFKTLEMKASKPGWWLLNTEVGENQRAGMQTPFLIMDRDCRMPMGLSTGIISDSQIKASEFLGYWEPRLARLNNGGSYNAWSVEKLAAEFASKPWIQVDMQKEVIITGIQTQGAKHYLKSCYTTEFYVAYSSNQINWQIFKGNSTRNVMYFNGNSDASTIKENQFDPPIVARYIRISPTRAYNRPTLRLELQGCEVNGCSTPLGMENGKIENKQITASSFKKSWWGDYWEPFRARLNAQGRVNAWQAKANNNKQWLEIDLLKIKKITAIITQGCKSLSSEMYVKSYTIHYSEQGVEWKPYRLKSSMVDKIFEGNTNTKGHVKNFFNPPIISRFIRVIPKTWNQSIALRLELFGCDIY", "conditions": "direct, independent of antithrombin III; cited from earlier work"}, "thrombosis [2]": {"tested_on": "thrombosis", "conditions": "canine; cited from earlier work"}, "factor Xa": {"biological_target": "T1, factor Xa (Homo sapiens, UniProt P00742)", "T1 construct": "host or cells: blood of patients (endogenous)", "T1 sequence (P00742 235-488 limits assumed)": "as the sequence (P00742 235-488 limits assumed) above", "T1 sequence (P00742 41-179 partner limits assumed)": "as the sequence (P00742 41-179 partner limits assumed) above", "conditions": "patients with stable coronary artery disease on usual comedication, some with mild renal impairment; Hinder et al. 2006; cited from earlier work"}, "[3]": {"tested_on": "prothrombin fragments 1+2", "conditions": "highest dose regimen; Cohen et al. 2007; cited from earlier work"}, "thrombosis [4]": {"tested_on": "thrombosis", "conditions": "rodent; cited from earlier work"}, "free factor Xa": {"biological_target": "free factor Xa (Homo sapiens, UniProt P00742)", "sequence (P00742 235-488 limits assumed)": "as the sequence (P00742 235-488 limits assumed) above", "sequence (P00742 41-179 partner limits assumed)": "as the sequence (P00742 41-179 partner limits assumed) above", "conditions": "direct, independent of antithrombin III; cited from earlier work"}, "thrombosis [5]": {"tested_on": "thrombosis", "conditions": "porcine; cited from earlier work"}}, "note": "Read-outs that look alike come from different tables or passages of the source."}
{"smiles": "COC(=O)C(Cc1cccc(C(=N)N)c1)[C@@H](C)NC(=O)c1ccc(-c2cc[n+]([O-])cc2)cc1", "note": "(mixture of isomers) [Otamixaban, (2R,3R)-2-(3-Carbamimidoyl-benzyl)-3-[4-(1-oxy-pyridin-4-yl)benzoylamino]-butyric acid methyl ester]", "values": [{"measurement": "inhibition of factor Xa assembled in the prothrombinase complex", "setting": "[1]", "value": "inhibited"}, {"measurement": "efficacy in model of thrombosis", "setting": "thrombosis [2]", "value": "highly efficacious"}, {"measurement": "factor Xa inhibition in patients", "setting": "factor Xa", "value": "dose-dependent, rapid direct factor Xa inhibition"}, {"measurement": "reduction of prothrombin fragments 1+2 versus unfractionated heparin", "setting": "[3]", "value": "significantly more than unfractionated heparin"}, {"measurement": "efficacy in model of thrombosis", "setting": "thrombosis [4]", "value": "highly efficacious"}, {"measurement": "inhibition of free factor Xa", "setting": "free factor Xa", "value": "inhibited"}, {"measurement": "efficacy in model of thrombosis", "setting": "thrombosis [5]", "value": "highly efficacious"}]}
